For nine molecules, Ratio IC50 and inhibition results are on record in ChEMBL document CHEMBL1157692, “Probing the carbohydrate recognition domain of E-selectin: the importance of the acid orientation in sLex mimetics” (Bioorg Med Chem, 2010).

The source made the active and inactive calls. No cut-off for these calls is given here.

In the first experiment the target is T1, E-selectin (Homo sapiens) (UniProt P16581).
T1 sequence (whole entry): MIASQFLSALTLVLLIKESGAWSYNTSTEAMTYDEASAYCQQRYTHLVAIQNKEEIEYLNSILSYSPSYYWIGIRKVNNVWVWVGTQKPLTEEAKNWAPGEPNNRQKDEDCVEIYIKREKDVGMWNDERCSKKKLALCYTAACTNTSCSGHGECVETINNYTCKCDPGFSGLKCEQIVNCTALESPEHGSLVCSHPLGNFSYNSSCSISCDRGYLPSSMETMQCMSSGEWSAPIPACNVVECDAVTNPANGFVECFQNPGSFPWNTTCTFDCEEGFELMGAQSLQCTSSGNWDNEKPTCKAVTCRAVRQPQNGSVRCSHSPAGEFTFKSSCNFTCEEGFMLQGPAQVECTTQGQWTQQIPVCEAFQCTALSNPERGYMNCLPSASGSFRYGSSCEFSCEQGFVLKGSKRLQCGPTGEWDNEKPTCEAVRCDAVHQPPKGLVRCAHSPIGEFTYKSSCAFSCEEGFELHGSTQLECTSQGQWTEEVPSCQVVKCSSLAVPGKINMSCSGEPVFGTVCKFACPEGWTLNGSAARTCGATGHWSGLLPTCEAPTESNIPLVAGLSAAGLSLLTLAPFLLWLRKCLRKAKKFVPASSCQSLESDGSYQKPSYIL
Description: Ratio of sialyl Lewis X IC50 to compound IC50 for E-selectin by ELISA.
Take `C[C@@H]1O[C@@H](O[C@@H]2CCCC[C@H]2O[C@@H]2O[C@H](CO)[C@H](O)[C@H](O[C@@H](CC3CCCCC3)C(=O)O)[C@H]2O)[C@@H](O)[C@H](O)[C@@H]1O`: the Ratio IC50 was found to be 12.

A further experiment addresses T1, E-selectin (Homo sapiens). Description: Inhibition of CGP-69669A binding to E-selectin by ELISA.
For `C[C@@H]1O[C@@H](O[C@@H]2CCCC[C@H]2O[C@@H]2O[C@H](CO)[C@H](O)[C@H](O[C@@H](Cn3cc(-c4cccc(C(F)(F)F)c4)nn3)C(=O)O)[C@H]2O)[C@@H](O)[C@H](O)[C@@H]1O`, the inhibition result is “inactive”.

In the next experiment the target is T1, E-selectin (Homo sapiens). In words: Ratio of compound IC50 to sialyl Lewis X IC50 for E-selectin by ELISA.
In the case of `C[C@@H]1O[C@@H](O[C@@H]2CCCC[C@H]2O[C@@H]2O[C@H](CO)[C@H](O)[C@H](O[C@@H](Cn3cc(-c4cccnc4)nn3)C(=O)O)[C@H]2O)[C@@H](O)[C@H](O)[C@@H]1O`, the Ratio IC50 turned out to be 3.13.
Same read-out and setting: as for `C[C@@H]1O[C@@H](O[C@@H]2CCCC[C@H]2O[C@@H]2O[C@H](CO)[C@H](O)[C@H](O[C@@H](Cn3cc(Cn4nnc5ccccc54)nn3)C(=O)O)[C@H]2O)[C@@H](O)[C@H](O)[C@@H]1O`, the figure is 1.18; as for `C[C@@H]1O[C@@H](O[C@@H]2CCCC[C@H]2O[C@@H]2O[C@H](CO)[C@H](O)[C@H](O[C@@H](Cn3cc(-c4ccsc4)nn3)C(=O)O)[C@H]2O)[C@@H](O)[C@H](O)[C@@H]1O`, 0.88.
In the case of `C[C@@H]1O[C@@H](O[C@@H]2CCCC[C@H]2O[C@@H]2O[C@H](CO)[C@H](O)[C@H](O[C@@H](Cn3cc(Cn4nnc5c4CCCC5)nn3)C(=O)O)[C@H]2O)[C@@H](O)[C@H](O)[C@@H]1O`, the Ratio IC50 is 1.22.
Consider `C[C@@H]1O[C@@H](O[C@@H]2CCCC[C@H]2O[C@@H]2O[C@H](CO)[C@H](O)[C@H](O[C@@H](Cn3ccnn3)C(=O)O)[C@H]2O)[C@@H](O)[C@H](O)[C@@H]1O`, for which the Ratio IC50 amounted to 0.48.
In the case of `C[C@@H]1O[C@@H](O[C@@H]2CCCC[C@H]2O[C@@H]2O[C@H](CO)[C@H](O)[C@H](O[C@@H](CC3CCCCC3)C(=O)O)[C@H]2O)[C@@H](O)[C@H](O)[C@@H]1O`, the Ratio IC50 turned out to be 0.08.
`C[C@@H]1O[C@@H](O[C@@H]2CCCC[C@H]2O[C@@H]2O[C@H](CO)[C@H](O)[C@H](O[C@@H](Cn3cc(Cc4ccccc4)nn3)C(=O)O)[C@H]2O)[C@@H](O)[C@H](O)[C@@H]1O`: the Ratio IC50 came out at 1.03.
Take `C[C@@H]1O[C@@H](O[C@@H]2CCCC[C@H]2O[C@@H]2O[C@H](CO)[C@H](O)[C@H](O[C@@H](CN=[N+]=[N-])C(=O)O)[C@H]2O)[C@@H](O)[C@H](O)[C@@H]1O`: the Ratio IC50 worked out at 0.29.
